This note sets out measurements from ChEMBL document CHEMBL3085731, “Novel water-soluble prodrugs of acyclovir cleavable by the dipeptidyl-peptidase IV (DPP IV/CD26) enzyme” (Eur J Med Chem, 2013).

Converted amounts (≈) assume the structure as drawn. Residues, ends and D or L forms follow the SMILES beside them. *: point of attachment. X1 = O=c1[nH]c(N*)nc2c1ncn2COCCO

Data set [1] concerns the target T1, Dipeptidyl peptidase 4 (Homo sapiens, UniProt P27487). The data set is described as follows: Prodrug conversion assessed as dipeptidyl peptidase 4-mediated ACV formation in human serum at 50 uM after 1 hr by HPLC analysis. The format is ADME.
A further data set deals with Human alphaherpesvirus 2. The data set is described as follows: Antiviral activity against Herpes simplex virus 2 G infected in HEL cells assessed as inhibition of virus-induced cytopathicity. Particulars: Human alphaherpesvirus 2, strain G. The format is functional, organism-based.
Data set [2] is described as follows: Prodrug conversion in PBS buffer assessed as ACV formation at 50 uM after 24 hrs by HPLC analysis. The format is ADME.
The nature of data set [3]: Solubility of the compound in deionized water at pH 5.5 after overnight incubation by HPLC analysis. The data set is classed as physicochemical.
In data set [4] the target is T1, Dipeptidyl peptidase 4. The data set is described as follows: Prodrug conversion assessed as dipeptidyl peptidase 4-mediated ACV formation in human serum at 50 uM after 24 hrs by HPLC analysis. The format is ADME.
In data set [5] the test system is Human alphaherpesvirus 1. The data set is described as follows: Antiviral activity against thymidine kinase-deficient ACV-resistant Herpes simplex virus 1 KOS infected in HEL cells assessed as inhibition of virus-induced cytopathicity. The data set is classed as functional, organism-based. As to conditions: Human alphaherpesvirus 1, KOS; call rule not given here.
Data set [6] deals with Human alphaherpesvirus 1. Kind of data set: Antiviral activity against Herpes simplex virus 1 KOS infected in HEL cells assessed as inhibition of virus-induced cytopathicity. The data set is classed as functional, organism-based. As to conditions: Human alphaherpesvirus 1, KOS.
The nature of data set [7]: Chemical stability of the compound in sodium phosphate buffer at pH 3.2 after 6 hrs. The format is physicochemical. As to conditions: pH 3.2, 6 h.
The target of data set [8] is T1, Dipeptidyl peptidase 4. The data set is described as follows: Prodrug conversion assessed as dipeptidyl peptidase 4-mediated ACV formation in human serum at 50 uM after 2 hrs by HPLC analysis. The data set is classed as ADME.
A short description of data set [9]: Prodrug conversion in PBS buffer assessed as ACV formation at 50 uM after 2 hrs by HPLC analysis. The format is ADME.
Data set [10] addresses Dipeptidyl peptidase 4 (Bos taurus, UniProt P81425). The data set is described as follows: Prodrug conversion assessed as dipeptidyl peptidase 4-mediated ACV formation in bovine serum at 50 uM after 2 hrs by HPLC analysis. The format is ADME. Particulars: cattle.
Data set [11] in a line: Oral bioavailability in human. The data set is classed as ADME, organism-based. As to conditions: in vivo.
Data set [12] concerns the target T1, Dipeptidyl peptidase 4. The data set is described as follows: Prodrug conversion assessed as human dipeptidyl peptidase 4-mediated Val-ACV formation at 50 uM after 24 hrs by HPLC analysis. The format is ADME. As to conditions: isolated protein.

T1 sequence (P27487 whole entry): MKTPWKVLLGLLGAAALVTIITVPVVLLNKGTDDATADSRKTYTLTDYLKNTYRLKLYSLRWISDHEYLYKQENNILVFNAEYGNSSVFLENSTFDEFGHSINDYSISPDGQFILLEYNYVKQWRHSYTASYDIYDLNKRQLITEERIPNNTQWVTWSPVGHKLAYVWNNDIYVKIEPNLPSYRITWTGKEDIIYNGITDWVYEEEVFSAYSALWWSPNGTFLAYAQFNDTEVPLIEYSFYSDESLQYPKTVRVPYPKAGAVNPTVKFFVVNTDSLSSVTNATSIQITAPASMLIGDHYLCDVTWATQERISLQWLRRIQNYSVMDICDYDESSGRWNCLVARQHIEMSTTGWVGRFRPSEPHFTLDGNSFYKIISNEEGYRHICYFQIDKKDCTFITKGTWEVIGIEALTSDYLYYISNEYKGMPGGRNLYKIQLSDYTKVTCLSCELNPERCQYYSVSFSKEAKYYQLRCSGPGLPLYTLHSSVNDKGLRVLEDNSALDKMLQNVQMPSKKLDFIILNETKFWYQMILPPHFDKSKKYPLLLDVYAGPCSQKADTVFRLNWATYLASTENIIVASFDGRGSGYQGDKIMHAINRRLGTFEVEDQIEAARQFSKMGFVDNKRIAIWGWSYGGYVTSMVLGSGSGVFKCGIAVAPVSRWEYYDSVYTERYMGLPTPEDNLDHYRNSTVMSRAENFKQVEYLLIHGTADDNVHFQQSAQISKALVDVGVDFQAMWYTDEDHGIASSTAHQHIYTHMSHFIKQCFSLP
Sequence of Dipeptidyl peptidase 4 (Bos taurus, UniProt P81425) (P81425 whole entry): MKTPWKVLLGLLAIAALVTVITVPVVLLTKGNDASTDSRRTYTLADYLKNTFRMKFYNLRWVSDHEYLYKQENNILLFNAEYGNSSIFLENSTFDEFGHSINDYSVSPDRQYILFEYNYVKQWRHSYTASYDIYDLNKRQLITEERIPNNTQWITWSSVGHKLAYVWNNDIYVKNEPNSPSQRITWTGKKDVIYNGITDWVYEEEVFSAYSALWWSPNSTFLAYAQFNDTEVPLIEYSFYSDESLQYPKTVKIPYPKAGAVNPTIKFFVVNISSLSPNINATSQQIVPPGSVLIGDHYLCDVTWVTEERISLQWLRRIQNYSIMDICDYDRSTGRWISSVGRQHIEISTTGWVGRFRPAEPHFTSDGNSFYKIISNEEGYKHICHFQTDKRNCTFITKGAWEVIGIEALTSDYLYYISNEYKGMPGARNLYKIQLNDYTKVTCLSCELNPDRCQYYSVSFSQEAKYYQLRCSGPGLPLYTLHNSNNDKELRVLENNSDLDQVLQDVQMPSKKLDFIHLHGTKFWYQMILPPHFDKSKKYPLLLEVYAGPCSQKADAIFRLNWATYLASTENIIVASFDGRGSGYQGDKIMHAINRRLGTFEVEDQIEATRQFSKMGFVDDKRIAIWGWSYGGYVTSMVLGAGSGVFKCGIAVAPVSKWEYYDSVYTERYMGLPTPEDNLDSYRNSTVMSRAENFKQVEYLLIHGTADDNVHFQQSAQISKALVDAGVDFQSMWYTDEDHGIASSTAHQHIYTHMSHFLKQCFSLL

As for `CC(C)[C@H](N)C(=O)N1CCC[C@H]1C(=O)N[C@H](C(=O)N1CCC[C@H]1C(=O)Nc1nc2c(ncn2COCCO)c(=O)[nH]1)C(C)C` (H-VPVP-X1), the Drug metabolism result (at Dipeptidyl peptidase 4 [1]; in [2]; on Dipeptidyl peptidase 4 [4]) was “Active” each time. The EC50 with Human alphaherpesvirus 2 was found to be 4.9 µM; in the data set on Human alphaherpesvirus 1 [5] it was 73 µM; with Human alphaherpesvirus 1 [6], 1.8 µM. The solubility in data set [3] worked out at 22.9 mg/mL (≈ 37 mM). The Stability result in data set [7] is reported as “Stable”.
For the molecule `CC(C)[C@H](N)C(=O)OCCOCn1cnc2c(=O)[nH]c(N)nc21` [VALACYCLOVIR], the Drug metabolism result (at Dipeptidyl peptidase 4 [8]; in data set [9]; on Dipeptidyl peptidase 4 [10]) was “Active” throughout.
In [11], `Nc1nc2c(ncn2COCCO)c(=O)[nH]1` [ACYCLOVIR] yielded a bioavailability of 10%. Also, the results for the concentration giving a half-maximal response (EC50) with Human alphaherpesvirus 2 and in the data set with Human alphaherpesvirus 1 [5] were 0.5 µM and 18 µM, respectively. Moreover, in data set [3], the concentration in solution (solubility) was 1.29 mg/mL (≈ 5.73 mM).
In the case of `CC(C)[C@H](N)C(=O)N1CCC[C@H]1C(=O)N[C@H](C(=O)OCCOCn1cnc2c(=O)[nH]c(N)nc21)C(C)C`, the half-maximal effective concentration (EC50) stood at 1.6 µM with Human alphaherpesvirus 2, 32 µM in the data set on Human alphaherpesvirus 1 [5] and 0.6 µM in the data set with Human alphaherpesvirus 1 [6]. For the same molecule, the Drug metabolism entry in [2] was “Not Active”; at Dipeptidyl peptidase 4 [12], “Active”. The solubility in [3] was found to be 12.2 mg/mL (≈ 23.4 mM). Further, the Stability entry in data set [7] is “Stable”.
